Experimental data reported in ChEMBL document CHEMBL3627608, “Crystal structures of human RIP2 kinase catalytic domain complexed with ATP-competitive inhibitors: Foundations for understanding inhibitor selectivity” (Bioorg Med Chem, 2015).

What was measured:
[1] = biological target: Myosin light chain kinase, smooth muscle (Homo sapiens) (UniProt Q15746); experiment: Inhibition of MLCK (unknown origin) at 10 uM after 120 mins P33 radiolabeled kinase activity assay
[2] = biological target: T1, Inhibitor of nuclear factor kappa-B kinase subunit alpha (Homo sapiens) (UniProt O15111); experiment: Inhibition of IKKalpha (unknown origin) at 10 uM after 120 mins P33 radiolabeled kinase activity assay
T1 sequence (whole entry): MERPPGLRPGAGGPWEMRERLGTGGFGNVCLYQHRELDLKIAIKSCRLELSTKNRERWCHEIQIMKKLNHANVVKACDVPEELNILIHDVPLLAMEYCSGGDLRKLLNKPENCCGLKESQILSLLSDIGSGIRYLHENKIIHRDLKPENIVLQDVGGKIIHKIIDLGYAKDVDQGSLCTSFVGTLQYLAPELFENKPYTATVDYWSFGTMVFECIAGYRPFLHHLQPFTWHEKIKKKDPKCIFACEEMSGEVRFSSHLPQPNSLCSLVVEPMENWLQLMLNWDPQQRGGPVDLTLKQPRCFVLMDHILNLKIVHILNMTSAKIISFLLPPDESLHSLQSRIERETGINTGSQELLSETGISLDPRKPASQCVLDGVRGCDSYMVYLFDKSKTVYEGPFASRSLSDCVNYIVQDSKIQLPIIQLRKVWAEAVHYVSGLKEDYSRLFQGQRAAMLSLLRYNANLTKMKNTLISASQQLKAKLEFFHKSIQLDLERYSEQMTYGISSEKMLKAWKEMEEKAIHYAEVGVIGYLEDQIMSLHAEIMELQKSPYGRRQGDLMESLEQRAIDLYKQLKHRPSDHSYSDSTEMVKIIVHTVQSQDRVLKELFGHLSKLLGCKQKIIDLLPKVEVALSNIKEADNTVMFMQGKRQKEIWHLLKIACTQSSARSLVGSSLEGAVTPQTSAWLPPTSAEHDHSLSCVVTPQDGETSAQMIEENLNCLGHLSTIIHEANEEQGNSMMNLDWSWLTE

[3] = biological target: Calcium/calmodulin-dependent protein kinase type II subunit gamma (Homo sapiens) (UniProt Q13555); experiment: Inhibition of CAMK2gamma (unknown origin) at 10 uM after 120 mins P33 radiolabeled kinase activity assay
[4] = biological target: Serine/threonine-protein kinase MARK1 (Homo sapiens) (UniProt Q9P0L2); experiment: Inhibition of MARK1 (unknown origin) at 10 uM after 120 mins P33 radiolabeled kinase activity assay
Serine/threonine-protein kinase MARK1 (Homo sapiens), sequence (Q9P0L2 whole entry, looked up): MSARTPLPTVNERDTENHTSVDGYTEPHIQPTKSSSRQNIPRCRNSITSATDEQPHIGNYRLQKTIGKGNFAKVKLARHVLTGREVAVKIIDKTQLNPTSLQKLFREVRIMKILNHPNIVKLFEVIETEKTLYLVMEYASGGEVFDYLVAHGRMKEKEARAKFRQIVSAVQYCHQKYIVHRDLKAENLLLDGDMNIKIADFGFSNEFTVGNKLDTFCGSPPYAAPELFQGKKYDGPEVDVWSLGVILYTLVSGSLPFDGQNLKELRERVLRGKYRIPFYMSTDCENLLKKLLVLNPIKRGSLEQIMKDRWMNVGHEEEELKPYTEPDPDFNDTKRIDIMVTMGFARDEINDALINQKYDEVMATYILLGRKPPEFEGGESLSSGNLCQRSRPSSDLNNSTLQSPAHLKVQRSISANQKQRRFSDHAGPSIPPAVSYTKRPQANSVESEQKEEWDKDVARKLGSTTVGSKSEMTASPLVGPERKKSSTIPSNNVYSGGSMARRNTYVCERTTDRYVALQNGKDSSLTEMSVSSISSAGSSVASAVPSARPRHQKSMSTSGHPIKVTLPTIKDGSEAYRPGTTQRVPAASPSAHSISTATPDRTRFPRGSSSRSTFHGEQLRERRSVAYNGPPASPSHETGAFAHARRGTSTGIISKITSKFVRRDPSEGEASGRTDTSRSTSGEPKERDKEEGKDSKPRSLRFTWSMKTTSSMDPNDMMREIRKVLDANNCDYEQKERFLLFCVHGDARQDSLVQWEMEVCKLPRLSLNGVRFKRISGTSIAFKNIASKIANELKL

[5] = biological target: T2, Serine/threonine-protein kinase ULK2 (Homo sapiens) (UniProt Q8IYT8); experiment: Inhibition of ULK2 (unknown origin) at 10 uM after 120 mins P33 radiolabeled kinase activity assay
T2 sequence (whole entry): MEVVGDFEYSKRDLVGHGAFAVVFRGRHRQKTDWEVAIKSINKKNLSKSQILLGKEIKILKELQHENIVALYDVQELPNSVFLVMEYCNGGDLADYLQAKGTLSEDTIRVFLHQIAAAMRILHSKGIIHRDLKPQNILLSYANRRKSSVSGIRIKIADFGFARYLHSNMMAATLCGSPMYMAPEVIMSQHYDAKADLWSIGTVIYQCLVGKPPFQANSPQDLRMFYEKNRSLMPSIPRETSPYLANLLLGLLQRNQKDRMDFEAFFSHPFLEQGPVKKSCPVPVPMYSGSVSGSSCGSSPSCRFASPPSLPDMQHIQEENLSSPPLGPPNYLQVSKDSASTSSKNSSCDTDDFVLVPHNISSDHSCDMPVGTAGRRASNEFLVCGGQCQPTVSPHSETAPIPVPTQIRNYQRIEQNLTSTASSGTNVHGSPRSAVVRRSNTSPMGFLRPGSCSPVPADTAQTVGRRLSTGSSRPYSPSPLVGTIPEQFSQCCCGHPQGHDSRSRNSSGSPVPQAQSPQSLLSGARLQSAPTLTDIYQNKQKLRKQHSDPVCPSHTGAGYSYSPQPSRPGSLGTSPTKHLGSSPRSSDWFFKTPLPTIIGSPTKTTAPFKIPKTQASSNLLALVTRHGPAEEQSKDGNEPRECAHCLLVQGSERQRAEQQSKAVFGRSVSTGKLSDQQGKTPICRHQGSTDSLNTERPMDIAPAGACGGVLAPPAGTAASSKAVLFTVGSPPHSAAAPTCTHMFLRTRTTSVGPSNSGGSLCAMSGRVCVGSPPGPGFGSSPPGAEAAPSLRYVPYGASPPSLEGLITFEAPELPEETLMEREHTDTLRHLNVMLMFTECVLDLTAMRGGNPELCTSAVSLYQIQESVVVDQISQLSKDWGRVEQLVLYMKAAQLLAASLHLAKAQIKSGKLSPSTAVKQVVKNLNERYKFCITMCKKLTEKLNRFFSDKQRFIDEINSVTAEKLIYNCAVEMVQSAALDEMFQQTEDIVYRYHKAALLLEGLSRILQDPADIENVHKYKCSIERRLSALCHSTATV

[6] = biological target: Ribosomal protein S6 kinase alpha-6 (Homo sapiens) (UniProt Q9UK32); experiment: Inhibition of RSK4 (unknown origin) at 10 uM after 120 mins P33 radiolabeled kinase activity assay
Ribosomal protein S6 kinase alpha-6 (Homo sapiens), sequence (Q9UK32 whole entry): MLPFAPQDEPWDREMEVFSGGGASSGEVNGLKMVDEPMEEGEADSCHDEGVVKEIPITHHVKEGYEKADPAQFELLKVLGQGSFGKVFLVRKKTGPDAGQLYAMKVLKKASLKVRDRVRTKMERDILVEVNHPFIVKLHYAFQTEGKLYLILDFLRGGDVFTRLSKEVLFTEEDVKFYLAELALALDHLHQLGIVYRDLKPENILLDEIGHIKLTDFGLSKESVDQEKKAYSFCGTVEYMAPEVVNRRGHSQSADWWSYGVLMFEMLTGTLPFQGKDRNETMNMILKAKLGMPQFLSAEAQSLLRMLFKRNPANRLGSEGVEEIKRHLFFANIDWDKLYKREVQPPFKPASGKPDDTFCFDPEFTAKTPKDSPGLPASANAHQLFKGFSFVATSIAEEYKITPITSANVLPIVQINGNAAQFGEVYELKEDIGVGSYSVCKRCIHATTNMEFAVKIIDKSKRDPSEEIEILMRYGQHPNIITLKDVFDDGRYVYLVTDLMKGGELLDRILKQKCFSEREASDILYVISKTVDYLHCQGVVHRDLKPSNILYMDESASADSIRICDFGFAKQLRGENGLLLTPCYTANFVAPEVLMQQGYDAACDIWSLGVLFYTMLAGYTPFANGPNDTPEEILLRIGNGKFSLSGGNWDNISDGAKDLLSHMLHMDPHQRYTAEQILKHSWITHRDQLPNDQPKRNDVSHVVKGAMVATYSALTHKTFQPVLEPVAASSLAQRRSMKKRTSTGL

[7] = biological target: Ribosomal protein S6 kinase alpha-2 (Homo sapiens) (UniProt Q15349); experiment: Inhibition of RSK3 (unknown origin) at 10 uM after 120 mins P33 radiolabeled kinase activity assay
[8] = biological target: Serine/threonine-protein kinase OSR1 (Homo sapiens) (UniProt O95747); experiment: Inhibition of OSR1 (unknown origin) at 10 uM after 120 mins P33 radiolabeled kinase activity assay
[9] = biological target: Mitogen-activated protein kinase kinase kinase kinase 1 (Homo sapiens) (UniProt Q92918); experiment: Inhibition of HPK1 (unknown origin) at 10 uM after 120 mins P33 radiolabeled kinase activity assay
Mitogen-activated protein kinase kinase kinase kinase 1 (Homo sapiens), sequence (Q92918 whole entry, looked up): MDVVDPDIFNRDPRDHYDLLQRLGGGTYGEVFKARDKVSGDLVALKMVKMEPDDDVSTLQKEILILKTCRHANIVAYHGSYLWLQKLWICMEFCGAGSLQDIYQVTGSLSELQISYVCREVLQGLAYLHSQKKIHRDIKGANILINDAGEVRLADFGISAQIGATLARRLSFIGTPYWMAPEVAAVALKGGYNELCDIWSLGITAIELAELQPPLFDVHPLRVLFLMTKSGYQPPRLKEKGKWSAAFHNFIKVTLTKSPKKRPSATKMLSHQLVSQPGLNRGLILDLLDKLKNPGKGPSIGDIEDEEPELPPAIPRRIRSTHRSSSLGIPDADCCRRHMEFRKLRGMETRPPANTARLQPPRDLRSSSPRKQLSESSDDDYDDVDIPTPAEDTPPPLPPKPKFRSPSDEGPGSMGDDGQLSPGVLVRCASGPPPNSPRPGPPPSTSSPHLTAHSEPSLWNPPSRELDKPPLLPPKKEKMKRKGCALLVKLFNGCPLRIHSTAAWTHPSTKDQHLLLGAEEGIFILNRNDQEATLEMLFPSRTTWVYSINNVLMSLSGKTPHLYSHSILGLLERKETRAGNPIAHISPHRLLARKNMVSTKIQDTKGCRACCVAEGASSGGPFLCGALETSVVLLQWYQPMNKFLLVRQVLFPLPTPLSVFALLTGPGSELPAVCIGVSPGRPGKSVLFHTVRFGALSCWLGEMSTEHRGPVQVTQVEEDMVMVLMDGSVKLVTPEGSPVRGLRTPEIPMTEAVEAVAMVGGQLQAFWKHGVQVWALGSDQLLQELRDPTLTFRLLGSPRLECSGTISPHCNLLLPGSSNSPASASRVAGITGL

[10] = biological target: Calcium/calmodulin-dependent protein kinase type 1B (Homo sapiens) (UniProt Q6P2M8); experiment: Inhibition of CAMK1beta (unknown origin) at 10 uM after 120 mins P33 radiolabeled kinase activity assay
Calcium/calmodulin-dependent protein kinase type 1B (Homo sapiens), sequence (Q6P2M8 whole entry): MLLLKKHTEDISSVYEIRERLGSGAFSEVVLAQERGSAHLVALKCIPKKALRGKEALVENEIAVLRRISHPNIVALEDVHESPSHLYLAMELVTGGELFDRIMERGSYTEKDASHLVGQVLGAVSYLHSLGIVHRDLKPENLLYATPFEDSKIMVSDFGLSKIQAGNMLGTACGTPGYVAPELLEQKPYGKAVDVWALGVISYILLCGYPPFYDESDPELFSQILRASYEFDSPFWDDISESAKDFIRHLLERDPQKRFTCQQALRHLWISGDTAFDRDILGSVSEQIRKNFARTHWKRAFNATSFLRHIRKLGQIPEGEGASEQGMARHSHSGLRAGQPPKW

Homo sapiens = species: Homo sapiens; experiment: Inhibition of PKG2 (unknown origin) at 10 uM after 120 mins P33 radiolabeled kinase activity assay
[11] = biological target: Tyrosine-protein kinase JAK1 (Homo sapiens) (UniProt P23458); experiment: Inhibition of JAK1 (unknown origin) at 10 uM after 120 mins P33 radiolabeled kinase activity assay

Myosin light chain kinase, smooth muscle (Homo sapiens), sequence (Q15746 whole entry): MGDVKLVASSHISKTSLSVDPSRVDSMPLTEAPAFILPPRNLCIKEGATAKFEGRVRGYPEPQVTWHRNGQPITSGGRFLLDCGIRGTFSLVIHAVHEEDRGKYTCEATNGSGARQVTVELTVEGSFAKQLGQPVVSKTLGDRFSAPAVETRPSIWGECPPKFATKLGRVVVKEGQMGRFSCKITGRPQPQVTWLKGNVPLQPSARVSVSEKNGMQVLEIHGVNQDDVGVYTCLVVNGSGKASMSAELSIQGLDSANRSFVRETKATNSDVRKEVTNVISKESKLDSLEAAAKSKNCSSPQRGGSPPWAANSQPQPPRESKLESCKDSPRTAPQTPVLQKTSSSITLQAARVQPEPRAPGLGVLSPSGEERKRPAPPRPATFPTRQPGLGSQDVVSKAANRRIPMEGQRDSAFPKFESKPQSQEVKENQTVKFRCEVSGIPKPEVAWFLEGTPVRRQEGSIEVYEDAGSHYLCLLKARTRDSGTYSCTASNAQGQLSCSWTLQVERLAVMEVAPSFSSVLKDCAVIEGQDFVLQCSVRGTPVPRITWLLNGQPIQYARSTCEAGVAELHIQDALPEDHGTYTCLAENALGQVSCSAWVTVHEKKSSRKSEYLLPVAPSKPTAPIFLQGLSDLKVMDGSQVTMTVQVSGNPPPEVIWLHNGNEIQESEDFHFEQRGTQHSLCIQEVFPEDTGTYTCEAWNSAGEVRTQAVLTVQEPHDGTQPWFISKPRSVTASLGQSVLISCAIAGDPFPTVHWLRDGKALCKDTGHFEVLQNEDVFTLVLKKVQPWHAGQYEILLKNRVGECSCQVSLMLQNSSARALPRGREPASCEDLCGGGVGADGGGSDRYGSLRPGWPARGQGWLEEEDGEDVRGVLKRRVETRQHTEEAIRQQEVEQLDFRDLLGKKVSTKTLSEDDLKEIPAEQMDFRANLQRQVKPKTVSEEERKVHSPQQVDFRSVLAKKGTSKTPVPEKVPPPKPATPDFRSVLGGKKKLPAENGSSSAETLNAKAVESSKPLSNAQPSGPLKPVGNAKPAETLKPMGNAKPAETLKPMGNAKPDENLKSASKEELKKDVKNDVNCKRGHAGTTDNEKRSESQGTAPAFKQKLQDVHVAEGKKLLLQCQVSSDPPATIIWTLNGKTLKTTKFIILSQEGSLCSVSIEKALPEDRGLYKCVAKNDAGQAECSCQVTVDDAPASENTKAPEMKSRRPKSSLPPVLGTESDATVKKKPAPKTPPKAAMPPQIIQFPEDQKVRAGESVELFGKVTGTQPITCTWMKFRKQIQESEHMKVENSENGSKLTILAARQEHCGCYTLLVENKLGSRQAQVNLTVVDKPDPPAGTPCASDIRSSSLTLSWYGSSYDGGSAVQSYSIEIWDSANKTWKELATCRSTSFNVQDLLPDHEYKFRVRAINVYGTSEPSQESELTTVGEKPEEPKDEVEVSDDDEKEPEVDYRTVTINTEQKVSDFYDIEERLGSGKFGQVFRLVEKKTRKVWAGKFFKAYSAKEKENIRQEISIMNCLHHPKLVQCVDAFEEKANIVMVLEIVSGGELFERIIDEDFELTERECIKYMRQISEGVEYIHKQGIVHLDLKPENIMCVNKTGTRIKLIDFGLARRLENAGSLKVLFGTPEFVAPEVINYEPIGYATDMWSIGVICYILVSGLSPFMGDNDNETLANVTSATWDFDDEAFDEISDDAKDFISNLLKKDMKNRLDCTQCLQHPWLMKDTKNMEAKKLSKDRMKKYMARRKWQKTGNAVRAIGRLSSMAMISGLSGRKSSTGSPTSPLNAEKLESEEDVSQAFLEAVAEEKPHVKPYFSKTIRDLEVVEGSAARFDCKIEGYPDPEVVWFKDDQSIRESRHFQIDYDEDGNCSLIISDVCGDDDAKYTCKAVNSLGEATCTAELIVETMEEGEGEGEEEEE

inhibition [1] [%]	inhibition [2] [%]	inhibition [3] [%]	inhibition [4] [%]	inhibition [5] [%]	inhibition [6] [%]	inhibition [7] [%]	inhibition [8] [%]	inhibition [9] [%]	inhibition [10] [%]	inhibition (Homo sapiens) [%]	inhibition [11] [%]	Compound
15.6	3.48	7.84	10.3	17	66.9	67.5	10.1	31.9	46.8	8.73	-2.11	CS(=O)(=O)c1cccc(Nc2nccc(-c3sc(N4CCOCC4)nc3-c3cccc(NS(=O)(=O)c4c(F)cccc4F)c3)n2)c1
17.6	2.39	9.22	3.28	-2.46	1.08	11.2	3.1	-3.48	2.47	-5.6	5.2	COCCNC(=O)c1ccc2c(c1)nc(-c1cnc(-c3ccc(Cl)cc3)[nH]1)n2CCOC
19.4	11.2	3.21	4.99	-6.09	4.26	53.4	22.6	57.6	9.84	6.69	-3.4	CC(C)(C)c1cc(NC(=O)Nc2ccc(Oc3ccncc3)cc2)no1
